EP1116727B1, “PEPTIDE DERIVATIVE” (Takeda Chemical Industries, Ltd., priority 1998, dated 2000)
Non-standard residues stand in square brackets, D forms with d. Residues, ends and D or L forms follow the SMILES beside them. No end group written: not given here. Phe(4-Cl) = N[C@@H](Cc1ccc(Cl)cc1)C(=O)O; Cha = N[C@@H](CC1CCCCC1)C(=O)O; Nle = CCCC[C@H](N)C(=O)O

molecular target: T1, APJ (Homo sapiens, UniProt P35414); test: Suppression activity on forskolin stimulated cAMP production; format: cell-based; details: suppression of cAMP production stimulated with 1 µM forskolin; CHO-A10 clone cells; 37°C for 30 minutes; cAMP EIA
T1 construct: expressed in transfected cells; host or cells: CHO cells (CHO-A10 clone)
T1 sequence (P35414 1-380): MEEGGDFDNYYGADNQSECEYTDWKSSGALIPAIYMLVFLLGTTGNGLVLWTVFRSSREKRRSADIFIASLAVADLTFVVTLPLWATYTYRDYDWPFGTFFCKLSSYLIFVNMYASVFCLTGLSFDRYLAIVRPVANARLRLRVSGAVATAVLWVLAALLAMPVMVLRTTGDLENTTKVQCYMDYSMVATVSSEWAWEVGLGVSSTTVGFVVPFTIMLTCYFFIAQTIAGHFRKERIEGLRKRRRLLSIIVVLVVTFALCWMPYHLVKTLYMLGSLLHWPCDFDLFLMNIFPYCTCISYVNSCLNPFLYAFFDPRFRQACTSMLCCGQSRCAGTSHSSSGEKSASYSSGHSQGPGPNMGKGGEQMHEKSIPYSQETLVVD
Method: Subsequently, after washing with 500 µl of the assay buffer once, 500 µl each of the sample dissolved in the assay buffer added with 1 µM of forskolin were put into each well to incubate at 37°C for 30 minutes. Wells incubated with assay buffer added with no forskolin were prepared to know the basic cAMP production of cells (basal level), and similarly, wells incubated with assay buffer added with forskolin were also prepared to know the maximum cAMP production with stimulation of foskolin (maximum level). After completion of incubation, each well was washed with 500 µl of the assay buffer once, added with 500 µl of the lysis buffer IB included in the cAMP EIA system (Amersham Pharmacia Biotech) and extraction of cAMP was carried out. Following the prescription for the kit, a portion of 100 µl each of the extracts was used to assay. The level of suppression activity on cAMP production was calculated by taking the difference between the maximum level and cAMP in the wells that was added with a sample (amount of the suppression of cAMP production), and by taking it as a percentage relative to the increased production (difference between maximum level and basal level) in cAMP associated with forskolin stimulation, and EC50 was determined based on the dose response curve.

Compound | EC50
CCCC[C@H](NC(=O)[C@@H]1CCCN1C(=O)CNC(=O)[C@H](CCCCN)NC(=O)[C@H](Cc1c[nH]cn1)NC(=O)[C@H](CO)NC(=O)[C@H](CC(C)C)NC(=O)[C@H](CCCNC(=N)N)NC(=O)[C@@H]1CCCN1C(=O)[C@H](CCCNC(=N)N)NC(=O)[C@H](CCC(N)=O)NC(=O)[C@H](CCCNC(=N)N)NC(=O)[C@H](CCCNC(=N)N)NC(=O)[C@H](Cc1ccccc1)NC(=O)[C@H](CCCCN)NC(=O)[C@H](CCCNC(=N)N)NC(=O)[C@H](CCCNC(=N)N)NC(=O)CNC(=O)CNC(=O)[C@H](CCC(N)=O)NC(=O)[C@H](Cc1c[nH]c2ccccc12)NC(=O)[C@@H]1CCCN1C(=O)CNC(=O)[C@@H]1CCCN1C(=O)CNC(=O)[C@H](CC(N)=O)NC(=O)[C@H](CCCNC(=N)N)NC(=O)[C@H](CO)NC(=O)CNC(=O)[C@H](CCCNC(=N)N)NC(=O)[C@@H]1CCCN1C(=O)[C@H](CCC(N)=O)NC(=O)[C@@H](NC(=O)[C@@H](N)CC(C)C)C(C)C)C(=O)N1CCC[C@H]1C(=O)N[C@@H](Cc1ccc(O)cc1)C(=O)O [Example 2] (H-LVQPRGSRNGPGPWQGGRRKFRRQRPRLSHKGP[Nle]PY-OH) | 0.41 nM
CSCC[C@H](NC(=O)[C@@H]1CCCN1C(=O)CNC(=O)[C@H](CCCCN)NC(=O)[C@H](Cc1c[nH]cn1)NC(=O)[C@H](CO)NC(=O)[C@H](CC(C)C)NC(=O)[C@H](CCCNC(=N)N)NC(=O)[C@@H]1CCCN1C(=O)[C@@H](N)CCCNC(=N)N)C(=O)N1CCC[C@H]1C(=O)N[C@@H](Cc1ccc2ccccc2c1)C(=O)O [Example 30] | 0.28 nM
CSCC[C@H](NC(=O)[C@@H]1CCCN1C(=O)CNC(=O)[C@H](CCCCN)NC(=O)[C@H](Cc1c[nH]cn1)NC(=O)[C@H](CO)NC(=O)[C@H](CC(C)C)NC(=O)[C@H](CCCNC(=N)N)NC(=O)[C@@H]1CCCN1C(=O)[C@@H](N)CCCNC(=N)N)C(=O)N[C@@H](CC1CCCCC1)C(=O)O [Example 34] | 0.37 nM
CC(C)C[C@H](NC(=O)[C@H](CCCNC(=N)N)NC(=O)[C@@H]1CCCN1C(=O)[C@H](CCCNC(=N)N)NC(=O)[C@H](CCC(N)=O)NC(=O)[C@H](CCCNC(=N)N)NC(=O)[C@@H](N)CCCNC(=N)N)C(=O)N[C@@H](CO)C(=O)N[C@@H](Cc1c[nH]cn1)C(=O)N[C@@H](CCCCN)C(=O)NCC(=O)N1CCC[C@H]1C(=O)N[C@@H](CC1CCCCC1)C(=O)O [Example 36] (H-RRQRPRLSHKGP[Cha]-OH) | 0.16 nM
CSCC[C@H](NC(=O)[C@@H]1CCCN1C(=O)CNC(=O)[C@H](CCCCN)NC(=O)[C@H](Cc1c[nH]cn1)NC(=O)[C@H](CO)NC(=O)[C@H](CC(C)C)NC(=O)[C@H](CCCNC(=N)N)NC(=O)[C@@H]1CCCN1C(=O)[C@H](CCCNC(=N)N)NC(=O)[C@H](CCC(N)=O)NC(=O)[C@H](CCCNC(=N)N)NC(=O)[C@@H](N)CCCNC(=N)N)C(=O)N1CCC[C@H]1C(=O)N[C@@H](Cc1ccc(Cl)cc1)C(=O)O [Example 37] | 0.14 nM
CCCC[C@H](NC(=O)[C@H](Cc1c[nH]cn1)NC(=O)[C@H](CO)NC(=O)[C@H](CC(C)C)NC(=O)[C@H](CCCNC(=N)N)NC(=O)[C@@H]1CCCN1C(=O)[C@H](CCCNC(=N)N)NC(=O)[C@H](CCC(N)=O)NC(=O)[C@H](CCCNC(=N)N)NC(=O)[C@@H](N)CCCNC(=N)N)C(=O)NCC(=O)N1CCC[C@H]1C(=O)N[C@@H](CCSC)C(=O)N1CCC[C@H]1C(=O)N[C@@H](Cc1ccc(Cl)cc1)C(=O)O [Example 38] (H-RRQRPRLSH[Nle]GPMP[Phe(4-Cl)]-OH) | 0.35 nM

Continued by falling EC50, values first:

EC50 | Compound
0.52 nM | LVQPRGSRNGPGPWQGGRRKFRRQRPRLSHKGPMPF [reference compound]
0.34 nM | CC(C)C[C@H](NC(=O)[C@H](CCCNC(=N)N)NC(=O)[C@@H]1CCCN1C(=O)[C@H](CCCNC(=N)N)NC(=O)[C@@H]1CCC(=O)N1)C(=O)N[C@@H](CO)C(=O)N[C@@H](Cc1c[nH]cn1)C(=O)N[C@@H](CCCCN)C(=O)NCC(=O)N1CCC[C@H]1C(=O)N[C@@H](CC1CCCCC1)C(=O)N1CCC[C@H]1C(=O)N[C@@H](Cc1ccccc1)C(=O)O [Example 35]
0.3 nM | CSCC[C@H](NC(=O)[C@@H]1CCCN1C(=O)CNC(=O)[C@H](CCCCN)NC(=O)[C@H](Cc1c[nH]cn1)NC(=O)[C@H](CO)NC(=O)[C@H](CC(C)C)NC(=O)[C@H](CCCNC(=N)N)NC(=O)[C@@H]1CCCN1C(=O)[C@@H](N)CCCNC(=N)N)C(=O)N[C@@H](Cc1ccc2ccccc2c1)C(=O)O [Example 31]
0.2 nM | CSCC[C@H](NC(=O)[C@@H]1CCCN1C(=O)CNC(=O)[C@H](CCCCN)NC(=O)[C@H](Cc1c[nH]cn1)NC(=O)[C@H](CO)NC(=O)[C@H](CC(C)C)NC(=O)[C@H](CCCNC(=N)N)NC(=O)[C@@H]1CCCN1C(=O)[C@@H](N)CCCNC(=N)N)C(=O)N1CCC[C@H]1C(=O)N[C@@H](Cc1ccc(Cl)cc1)C(=O)O [Example 32]
0.19 nM | CCCC[C@H](NC(=O)[C@@H]1CCCN1C(=O)CNC(=O)[C@H](CCCCN)NC(=O)[C@H](Cc1c[nH]cn1)NC(=O)[C@H](CO)NC(=O)[C@H](CC(C)C)NC(=O)[C@H](CCCNC(=N)N)NC(=O)[C@@H]1CCCN1C(=O)[C@H](CCCNC(=N)N)NC(=O)[C@@H]1CCC(=O)N1)C(=O)N1CCC[C@H]1C(=O)N[C@@H](Cc1ccc(O)cc1)C(=O)O [Example 4]
0.1 nM | CSCC[C@H](NC(=O)[C@@H]1CCCN1C(=O)CNC(=O)[C@H](CCCCN)NC(=O)[C@H](Cc1c[nH]cn1)NC(=O)[C@H](CO)NC(=O)[C@H](CC(C)C)NC(=O)[C@H](CCCNC(=N)N)NC(=O)[C@@H]1CCCN1C(=O)[C@@H](N)CCCNC(=N)N)C(=O)N[C@@H](Cc1ccc(Cl)cc1)C(=O)O [Example 33]
